Results: ChEMBL document CHEMBL1124036 (J Med Chem, 1988)

Legend:
[1] = tested on: Vaccinia virus; experiment: Virus rating on vaccinia virus measured as the degree of inhibition of virus induced cytopathogenic effect in L929 cells; format: functional, Orthopoxvirus vaccinia
[2] = tested on: Vaccinia virus; experiment: The minimum inhibitory concentration required for 50% inhibition of vaccinia virus induced cytopathogenic effect in L929 cells; G indicates CPE reduction <50%; format: functional, organism-based; conditions: Orthopoxvirus vaccinia

SMILES	Virus rating [1]	MIC50 [2]
[N-]=[N+]=N[C@H]1C(n2cnc3c(N)nc(F)nc32)O[C@H](CO)[C@@H]1O (some centres undefined)	2.4	
Nc1nc(Cl)nc2c1ncn2C1O[C@H](CO)[C@H](O)[C@H]1Cl (some centres undefined)	0.7	
Nc1nc(F)nc2c1ncn2C1O[C@H](CO)[C@H](O)[C@H]1Cl (some centres undefined)	0.6	
[N-]=[N+]=N[C@H]1C(n2cnc3c(N)nc(Cl)nc32)O[C@H](CO)[C@@H]1O (some centres undefined)	0.8	
Nc1nc(Cl)nc2c1ncn2C1O[C@H](CO)[C@H](O)[C@H]1N (some centres undefined)	0.6	CPE reduction <50%
Nc1nc(F)nc2c1ncn2C1O[C@H](CO)[C@H](O)[C@H]1N (some centres undefined)	0.7	
Nc1nc(Cl)nc2c1ncn2C1O[C@H](CO)[C@H](O)[C@H]1I (some centres undefined)	0	
Nc1nc(Cl)nc2c1ncn2C1O[C@H](CO)[C@H](O)[C@H]1Br (some centres undefined)	0.4	
